Legend:
[1] = test system: CF1 male mice, carrageenan induced edema; experiment: Anti-inflammatory screen in mice (carrageenan induced foot edema); assay type: in vivo; conditions: for Percent of Control (induced edema): CF1 male mice, N=6
Excerpt: Few reports in the literature indicate interaction at these receptor sites other than by peptides or antibodies. […] Blocking these receptors is desirable because the entire inflammation cascade of events is triggered by the early release of TNFa and IL-1. […] Radioisotopes were obtained from New England Nuclear [Dupont, Boston, MA] and substrates and co- factors were obtained from Sigma Chemical Co. [St. Louis, MO]. […] Cell lines were obtained from American Type Culture Collection [Rockville, MD]. In Vivo Tests Anti-inflammatory screen in mice: Male CF male mice weighing 28-32g obtained from Jackson Lab. […] Evaluation of the induced edema was made by injecting 2% carrageenan in 0.9% saline into the plantar region of the foot. The opposite foot injected with 0.9% isotonic saline was used as a base line. […] Salmonella abortus equi [Lot # 69F4003] […] Drugs from 2 to 16 mg/kg, I.P. were administered 2 hr prior and 2 hr post-injection of the LPS and then subsequently for every 24 hr for the length ofthe animals' lives. Deaths were recorded every 12 hr and continued for 96 hr. […] In vitro TNFa andIL-1 Measurements and Cellular Regulation IC-21 mouse macrophages were maintained in RPMI-1640 + 10% FCS + P/S. After the cells had grown to confluency, E. coli LPS at 10 Ixg/ml was added to the medium. Agents were incubated at 12.5 to 100 µM final concentration for 18 hr. The medium (100 btl) was collected for TNFCt determinations. Interleukin-1 [IL-1] release was determined using P388D1 cells which were maintained in RPMI-1640 + 10% FCS + P/S. The L929 bioassay was used to quantitate the TNF and the IL-1 levels. The L929 mouse fibroblasts were grown in DMEM + 10% FCS + P/S to confluency in 96 well plates and incubated with 100 tl ofmedium from […] or P388D cells after 18 hr. The cells were stained with 0.2% crystal violet in 20% MeOH and read at 580 nm using a Molecular Devices scanner (SOFT-max program). High Affinity Binding to Receptors on L929-106 Cells Two laCi of 125I-TNFct (human recombinant, 30 mCi/tg New England Nuclear) or 125I-IL-1 (70-120[.t Ci/lxg,New England Nuclear) was added to confluency L929 cells for 90 min or 5 hr, respectively with 25, 50 and 100 tM of the test compounds 12]. The cells were washed repeatedly with isotonic saline, pH.7.2 and aliquots counted. Prostaglandin cylcooxygenase activity Mouse J774AI macrophages maintained in Dulbecco's modified Eagle's medium + 15% FCS + P/S. Cells (5 x 106) were incubated with agents (5 to 100 ].tM final concentration) and 3H-arachidonic acid (100 Ci/mol) for 60 min at 37C in a CO2 incubator. The reaction was terminated with 2N HCI, the mixture extracted 2 X with ether, and the organic layer evaporated.

[2] = target: T1, IL-1 high affinity receptor on L929 fibroblasts (Mus musculus, UniProt P13504); experiment: 125I-IL-1 high affinity binding to L929 fibroblasts; conditions: for 125I-IL-1 binding, Percent of Control: at 8 Hours (table title), N=6; for reduction of IL-1 high affinity receptor binding: 5 to 50 μM, 5 hr
T1 construct: host or cells: L929 mouse fibroblasts
T1 sequence (P13504 20-576): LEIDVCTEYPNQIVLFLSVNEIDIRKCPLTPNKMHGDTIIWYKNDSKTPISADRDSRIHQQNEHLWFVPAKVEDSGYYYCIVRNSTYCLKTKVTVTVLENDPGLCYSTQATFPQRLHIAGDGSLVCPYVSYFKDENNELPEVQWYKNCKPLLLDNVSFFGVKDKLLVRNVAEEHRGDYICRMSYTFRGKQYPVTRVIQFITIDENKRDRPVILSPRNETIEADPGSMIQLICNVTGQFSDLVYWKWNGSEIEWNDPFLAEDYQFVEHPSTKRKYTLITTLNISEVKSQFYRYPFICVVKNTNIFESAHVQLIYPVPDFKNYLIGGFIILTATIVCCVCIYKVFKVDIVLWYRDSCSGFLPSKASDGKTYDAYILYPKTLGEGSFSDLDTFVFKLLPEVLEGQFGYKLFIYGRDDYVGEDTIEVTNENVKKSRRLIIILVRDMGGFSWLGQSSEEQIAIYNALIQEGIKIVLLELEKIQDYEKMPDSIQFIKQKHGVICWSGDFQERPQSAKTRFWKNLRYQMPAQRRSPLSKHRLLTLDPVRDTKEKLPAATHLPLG
Excerpt: Few reports in the literature indicate interaction at these receptor sites other than by peptides or antibodies. […] Blocking these receptors is desirable because the entire inflammation cascade of events is triggered by the early release of TNFa and IL-1. […] Radioisotopes were obtained from New England Nuclear [Dupont, Boston, MA] and substrates and co- factors were obtained from Sigma Chemical Co. [St. Louis, MO]. […] Cell lines were obtained from American Type Culture Collection [Rockville, MD]. In Vivo Tests Anti-inflammatory screen in mice: Male CF male mice weighing 28-32g obtained from Jackson Lab. [Bar Harbor, […]] were used to screen agents at 8 or 16 mg/kg intraperitoneal [I.P.] x 2 administered 3 hr and 30 min prior to administering the irritant, according to Winter's protocol. Evaluation of the induced edema was made by injecting 2% carrageenan in 0.9% saline into the plantar region of the foot. The opposite foot injected with 0.9% isotonic saline was used as a base line. […] Salmonella abortus equi [Lot # 69F4003] […] Drugs from 2 to 16 mg/kg, I.P. were administered 2 hr prior and 2 hr post-injection of the LPS and then subsequently for every 24 hr for the length ofthe animals' lives. Deaths were recorded every 12 hr and continued for 96 hr. […] In vitro TNFa andIL-1 Measurements and Cellular Regulation IC-21 mouse macrophages were maintained in RPMI-1640 + 10% FCS + P/S. After the cells had grown to confluency, E. coli LPS at 10 Ixg/ml was added to the medium. Agents were incubated at 12.5 to 100 µM final concentration for 18 hr. The medium (100 btl) was collected for TNFCt determinations. Interleukin-1 [IL-1] release was determined using P388D1 cells which were maintained in RPMI-1640 + 10% FCS + P/S. The L929 bioassay was used to quantitate the TNF and the IL-1 levels. The L929 mouse fibroblasts were grown in DMEM + 10% FCS + P/S to confluency in 96 well plates and incubated with 100 tl ofmedium from IC-20 or P388D cells after 18 hr. The cells were stained with 0.2% crystal violet in 20% MeOH and read at 580 nm using a Molecular Devices scanner (SOFT-max program). […] The cells were washed repeatedly with isotonic saline, pH.7.2 and aliquots counted. Prostaglandin cylcooxygenase activity Mouse J774AI macrophages maintained in Dulbecco's modified Eagle's medium + 15% FCS + P/S. Cells (5 x 106) were incubated with agents (5 to 100 ].tM final concentration) and 3H-arachidonic acid (100 Ci/mol) for 60 min at 37C in a CO2 incubator. The reaction was terminated with 2N HCI, the mixture extracted 2 X with ether, and the organic layer evaporated.

Compound	Percent of Control (induced edema) ([1]; 8 mg/Kg X 2, I.P.)	Percent of Control (induced edema) ([1]; 16 mg/Kg X 2, I.P.)	125I-IL-1 binding, Percent of Control ([2]; 5 μM)	125I-IL-1 binding, Percent of Control ([2]; 12.5 μM)	125I-IL-1 binding, Percent of Control ([2]; 25 μM)	125I-IL-1 binding, Percent of Control ([2]; 50 μM)	reduction of IL-1 high affinity receptor binding [2]	reduction of edema ([1]; 16 mg/kg X 2)
CC(=O)Oc1c2cc(S(=O)(=O)[O-])cc1Cc1cc(S(=O)(=O)[O-])cc(c1OC(C)=O)Cc1cc(S(=O)(=O)[O-])cc(c1OC(C)=O)Cc1cc(S(=O)(=O)[O-])cc(c1OC(C)=O)Cc1cc(S(=O)(=O)[O-])cc(c1OC(C)=O)Cc1cc(S(=O)(=O)[O-])cc(c1OC(C)=O)Cc1cc(S(=O)(=O)[O-])cc(c1OC(C)=O)Cc1cc(S(=O)(=O)[O-])cc(c1OC(C)=O)C2.[Na+].[Na+].[Na+].[Na+].[Na+].[Na+].[Na+].[Na+] [Compound 8]	70 + 6% of Control	38+3% of Control	9+ 1% of Control	10 + 5% of Control	9 + 5% of Control	7 + 4% of Control	greater than 90%	
COc1c2cc(S(=O)(=O)[O-])cc1Cc1cc(S(=O)(=O)[O-])cc(c1OC)Cc1cc(S(=O)(=O)[O-])cc(c1OC)Cc1cc(S(=O)(=O)[O-])cc(c1OC)Cc1cc(S(=O)(=O)[O-])cc(c1OC)Cc1cc(S(=O)(=O)[O-])cc(c1OC)C2.[Na+].[Na+].[Na+].[Na+].[Na+].[Na+] [Compound 6]		48+3% of Control	3+2% of Control	3 + 2% of Control	3 + 2% of Control	3 + 1% of Control	greater than 90%	greater than 40%
Pentosan sulfate [Pentosan polysulfate, reference compound]		49+4% of Control						

Source: article PMC2365101, “Anti-Inflammatory Activity of (Polyphenolic)-Sulfonates and Their Sodium Salts in Rodents” (Metal-Based Drugs, 1998)
